Assay results as given in the NIST ThermoML archive (doi:10.1016/j.fluid.2014.09.014).

Assay: refractive index (other wavelength) (dimensionless); xn = mol fraction of the nth substance listed
Conditions: 313.15 K, 101 kPa, Liquid, Standard Abbe refractometry

CC(C)OC(C)C [diisopropyl ether] + CO
refractive index
Conditions	Wavelength=435.8 nm	Wavelength=486.1 nm	Wavelength=546.1 nm	Wavelength=587.6 nm
x2 = 0	–	1.36119	1.35842	1.357
x2 = 0.0423	–	1.36111	1.35837	1.35693
x2 = 0.0424	–	1.36115	1.35839	1.35696
x2 = 0.082	–	1.36108	1.35823	1.35691
x2 = 0.0822	–	1.36126	1.35853	1.3571
x2 = 0.1171	1.36445	1.36113	1.35838	1.35696
x2 = 0.1271	1.36445	1.36113	1.35841	1.35696
x2 = 0.1827	1.36423	1.36091	1.35818	1.35676
x2 = 0.2162	1.36405	1.36077	1.35802	1.35661
x2 = 0.251	1.36361	1.36031	1.35759	1.35617
x2 = 0.3298	1.36371	1.36044	1.3577	1.35627
x2 = 0.3577	1.36268	1.35958	1.35686	1.35545
x2 = 0.4497	1.36152	1.3583	1.35561	1.35419
x2 = 0.4525	1.36193	1.35868	1.35599	1.35459
x2 = 0.522	1.35976	1.35655	1.35386	1.35246
x2 = 0.5543	1.35887	1.35569	1.353	–
x2 = 0.609	1.35654	1.3534	1.35074	–
x2 = 0.6529	1.35496	1.35191	1.34921	–
x2 = 0.7504	1.35104	1.34795	1.34538	–
x2 = 0.804	1.34656	1.34353	1.341	–
x2 = 0.807	1.34668	1.34363	1.34112	–
x2 = 0.8727	1.34306	1.34009	1.33757	–
x2 = 0.9233	1.33508	1.33213	1.3297	–
x2 = 0.9253	1.33674	1.3338	1.33136	–
x2 = 0.9527	1.33377	1.33085	1.32843	–
x2 = 0.9773	1.3304	1.32749	1.32509	–
x2 = 0.989	1.32916	1.32628	1.32387	–
x2 = 0.9964	1.3282	1.32531	1.32292	–
